ChEMBL document CHEMBL1158540, “Heterocyclic cycloalkanol ethylamines as norepinephrine reuptake inhibitors” (Bioorg Med Chem Lett, 2010)

Tests used:
[1] = target: T1, Sodium-dependent noradrenaline transporter (Homo sapiens, UniProt P23975); assay: Inhibition of human NET transfected in MDCK-Net6 cells at 1 uM; type: cell-based
Rattus norvegicus [2] = assay: Effect on temperature homeostasis in telemetric ovariectomy-induced thermoregulatory dysfunction rat model assessed as maximum reduction of tail skin temperature from baseline at 30 mg/kg, sc fter 6.5 hrs; type: functional; conditions: route subcutaneous
[3] = target: T2, Sodium-dependent serotonin transporter (Homo sapiens, UniProt P31645); type: cell-based, JAR
Target sequence in this assay (P31645 whole entry): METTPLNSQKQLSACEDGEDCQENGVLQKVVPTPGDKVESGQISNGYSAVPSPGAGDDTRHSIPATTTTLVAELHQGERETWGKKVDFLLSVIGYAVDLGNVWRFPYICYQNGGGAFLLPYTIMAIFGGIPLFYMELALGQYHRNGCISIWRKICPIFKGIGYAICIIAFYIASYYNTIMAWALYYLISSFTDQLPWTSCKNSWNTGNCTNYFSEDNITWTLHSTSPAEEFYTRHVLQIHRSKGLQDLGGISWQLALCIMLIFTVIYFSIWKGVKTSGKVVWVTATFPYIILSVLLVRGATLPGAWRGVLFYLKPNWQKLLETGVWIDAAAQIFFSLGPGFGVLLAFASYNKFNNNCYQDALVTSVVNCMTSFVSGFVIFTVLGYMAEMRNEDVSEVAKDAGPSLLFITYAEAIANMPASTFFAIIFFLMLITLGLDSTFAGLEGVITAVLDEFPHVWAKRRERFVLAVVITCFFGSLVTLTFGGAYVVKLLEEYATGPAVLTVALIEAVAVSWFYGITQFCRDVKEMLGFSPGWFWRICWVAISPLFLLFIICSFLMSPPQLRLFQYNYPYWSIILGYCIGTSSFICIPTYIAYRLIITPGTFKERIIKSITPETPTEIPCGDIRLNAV

[4] = target: T3, Sodium-dependent dopamine transporter (Homo sapiens, UniProt Q01959); assay: biochemical
Description: Displacement of [3H]WIN-35428 form human DAT expressed in CHO cell membranes

Rattus norvegicus [5] = assay: Effect on temperature homeostasis in telemetric ovariectomy-induced thermoregulatory dysfunction rat model assessed as maximum reduction of tail skin temperature from baseline at 30 mg/kg, po after 3 hrs; type: functional
[6] = Half life in rat microsomes; type: ADME, Microsome
Rattus norvegicus [7] = assay: Effect on temperature homeostasis in telemetric ovariectomy-induced thermoregulatory dysfunction rat model assessed as mean reduction of tail skin temperature from baseline at 30 mg/kg, po after 3 hrs; type: functional
[8] = target: T1, Sodium-dependent noradrenaline transporter
Rattus norvegicus [9] = assay: Effect on temperature homeostasis in telemetric ovariectomy-induced thermoregulatory dysfunction rat model assessed as mean reduction of tail skin temperature from baseline at 30 mg/kg, sc after 6.5 hrs; type: functional; conditions: route subcutaneous
[10] = target: T2, Sodium-dependent serotonin transporter; assay: Inhibition of human SERT expressed in human JAR cells at 1 uM; type: cell-based
Target sequence in this assay (P31645 whole entry, looked up): as the sequence (P31645 whole entry) above

[11] = target: T3, Sodium-dependent dopamine transporter; assay: Inhibition of [3H]WIN-35428 binding to human DAT expressed in CHO membranes at 1000 nM; type: cell membranes
Rattus norvegicus [12] = assay: Effect on temperature homeostasis in telemetric ovariectomy-induced thermoregulatory dysfunction rat model assessed as mean reduction of tail skin temperature from baseline at 30 mg/kg, ip after 5.5 hrs; type: functional; conditions: route intraperitoneal
Rattus norvegicus [13] = assay: Effect on temperature homeostasis in telemetric ovariectomy-induced thermoregulatory dysfunction rat model assessed as maximum reduction of tail skin temperature from baseline at 30 mg/kg, ip fter 5.5 hrs; type: functional; conditions: route intraperitoneal
Rattus norvegicus [14] = assay: Effect on temperature homeostasis in telemetric ovariectomy-induced thermoregulatory dysfunction rat model assessed as maximum reduction of tail skin temperature from baseline at 30 mg/kg, ip fter 6 hrs; type: functional; conditions: route intraperitoneal
Rattus norvegicus [15] = assay: Effect on temperature homeostasis in telemetric ovariectomy-induced thermoregulatory dysfunction rat model assessed as mean reduction of tail skin temperature from baseline at 30 mg/kg, ip after 6 hrs; type: functional; conditions: route intraperitoneal

T3 sequence (Q01959 whole entry): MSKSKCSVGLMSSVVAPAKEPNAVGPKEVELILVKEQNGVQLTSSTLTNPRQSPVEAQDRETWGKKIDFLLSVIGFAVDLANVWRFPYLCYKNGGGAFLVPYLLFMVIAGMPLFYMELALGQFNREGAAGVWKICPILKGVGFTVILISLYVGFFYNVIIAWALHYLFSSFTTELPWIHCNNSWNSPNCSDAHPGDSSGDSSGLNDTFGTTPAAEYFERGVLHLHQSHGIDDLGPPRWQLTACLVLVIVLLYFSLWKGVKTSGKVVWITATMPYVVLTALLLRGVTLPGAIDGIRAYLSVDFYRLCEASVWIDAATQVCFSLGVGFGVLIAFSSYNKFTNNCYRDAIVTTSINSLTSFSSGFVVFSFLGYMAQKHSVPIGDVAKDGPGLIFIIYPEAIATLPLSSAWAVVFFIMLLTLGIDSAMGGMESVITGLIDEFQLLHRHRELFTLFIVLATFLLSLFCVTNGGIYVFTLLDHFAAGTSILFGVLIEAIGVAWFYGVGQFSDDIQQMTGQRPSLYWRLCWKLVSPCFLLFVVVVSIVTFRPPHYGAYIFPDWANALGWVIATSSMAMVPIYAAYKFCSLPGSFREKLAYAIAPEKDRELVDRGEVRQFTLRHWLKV
T1 sequence (P23975 whole entry): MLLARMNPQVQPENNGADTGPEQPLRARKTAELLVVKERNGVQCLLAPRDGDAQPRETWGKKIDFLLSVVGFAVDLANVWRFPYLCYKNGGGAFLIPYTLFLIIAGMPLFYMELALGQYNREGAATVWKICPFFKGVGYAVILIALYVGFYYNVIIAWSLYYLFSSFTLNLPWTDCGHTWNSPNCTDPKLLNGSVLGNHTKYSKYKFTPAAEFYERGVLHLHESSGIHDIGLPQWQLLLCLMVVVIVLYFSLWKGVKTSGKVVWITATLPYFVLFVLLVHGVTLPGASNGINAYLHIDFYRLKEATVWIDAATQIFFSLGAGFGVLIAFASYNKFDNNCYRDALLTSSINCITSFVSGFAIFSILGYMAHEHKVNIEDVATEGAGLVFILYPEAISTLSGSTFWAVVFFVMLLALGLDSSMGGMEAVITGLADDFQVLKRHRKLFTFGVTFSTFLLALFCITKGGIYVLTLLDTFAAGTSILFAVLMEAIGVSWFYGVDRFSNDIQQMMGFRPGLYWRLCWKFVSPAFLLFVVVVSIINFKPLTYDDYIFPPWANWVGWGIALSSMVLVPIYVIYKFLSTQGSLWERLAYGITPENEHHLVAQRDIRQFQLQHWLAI

Structure (SMILES)	INH [1]	IC50 [4]	IC50 [8]	INH [10]	other results
Cn1cc(C(CN2CCNCC2)C2(O)CCCCC2)c2ccccc21 (stereo not given)	32 µM				
CN1CCN(CC(c2cccc(Cl)c2)C2(O)CCCCC2)CC1 (stereo not given)		0.247 µM	0.056 µM		Activity (Rattus norvegicus [2]): -3.5 °C; IC50 [3]: > 2 µM; Activity (Rattus norvegicus [5]): -3.8 °C; half-life [6]: < 1 min; Activity (Rattus norvegicus [7]): -3.1 °C; Activity (Rattus norvegicus [9]): -2.6 °C
OC1(C(CN2CCNCC2)c2ccc(Cl)s2)CCCCC1 (stereo not given)	50.8 µM				
OC1(C(CN2CCNCC2)c2csc3ccccc23)CCCCC1 (stereo not given)	82 µM		0.255 µM	48 µM	inhibition [11]: 51%
CN1CCN(C[C@@H](c2cccc(Cl)c2)C2(N)CCCCC2)CC1		0.03 µM	0.576 µM	32 µM	
CN1CCN(C[C@H](c2csc(Cl)c2)C2(O)CCCCC2)CC1	91 µM	0.212 µM	0.057 µM		Activity (Rattus norvegicus [12]): -3.3 °C; Activity (Rattus norvegicus [13]): -4.6 °C
CN1CCN(C[C@H](c2cccc(Cl)c2)C2(O)CCCCC2)CC1	92 µM	0.175 µM	0.03 µM		
OC1(C(CN2CCNCC2)c2cc(Cl)sc2Cl)CCCCC1 (stereo not given)	94 µM		0.225 µM	12.2 µM	
OC1(C(CN2CCNCC2)c2cnc3ccccc3c2)CCCCC1 (stereo not given)	19 µM				
CN1CCN(CC(c2csc(Cl)c2)C2(O)CCCCC2)CC1 (stereo not given)	88 µM	0.389 µM	0.095 µM		Activity (Rattus norvegicus [14]): -4.2 °C; Activity (Rattus norvegicus [15]): -2.75 °C
OC1(C(CN2CCNCC2)c2cc3ccccc3s2)CCCCC1 (stereo not given)	73 µM		0.55 µM	89 µM	inhibition [11]: 61%
CN1CCN(C[C@@H](c2csc(Cl)c2)C2(O)CCCCC2)CC1	0 µM	> 6 µM	18 µM		
OC1(C(CN2CCNCC2)c2ccsc2Cl)CCCCC1 (stereo not given)	55 µM		0.72 µM	34 µM	
OC1(C(CN2CCNCC2)c2c[nH]c3ccccc23)CCCCC1 (stereo not given)	21 µM			90 µM	
OC1(C(CN2CCNCC2)c2csc(Cl)c2)CCCCC1 (stereo not given)	86 µM		0.1 µM		inhibition [11]: 43%
OC1(C(CN2CCNCC2)c2cccs2)CCCCC1 (stereo not given)	54 µM				
